From patent US20250214986A1, “P2X3 INHIBITOR COMPOUND, SALT THEREOF, POLYMORPH THEREOF AND USE THEREOF” (HUMANWELL HEATHCARE (GROUP) CO., LTD., priority 2022, published 2025)
Where a name gives a salt, the structure may show the parent alone. One block for each compound: values may come before it.

Columns and labels:
Assay type in all cases: physicochemical
[1] = Hygroscopicity by dynamic vapor sorption (DVS); settings: for crystalline form after DVS test: 0% RH to 95% RH to 0% RH; for vapor sorption / hygroscopicity: 25° C./80% RH; for hygroscopicity: DVS
Experimental: Dynamic vapor sorption (DVS) curves were acquired on a DVS IntrInsic from Surface Measurement Systems (SMS). The relative humidity at 25° C. was corrected with the deliquescence points of LiCl, Mg(NO3)2, and KCl.
Starting at 0% RH, the test acquired the percentage changes in mass of the samples when the humidity changed (0% RH to 95% RH to 0% RH) at a constant temperature of 25° C.

[2] = Solid state stability (XRPD and HPLC); settings: for change of HPLC purity after placement under the corresponding conditions: 60° C. sealed 1 day, 25° C./60% RH and 40° C./75% RH uncovered 1 week/1 month
Experimental: In the test, the purity, dynamic solubility and stability were tested using an Agilent 1260 high-performance liquid chromatograph, the molar ratio of salt-forming ions was tested using ion chromatography, and the analytical conditions are shown in Tables A-4 and A-5 below. [table]

[3] = Dynamic solubility experiment at 37° C.
Experimental: In the test, the purity, dynamic solubility and stability were tested using an Agilent 1260 high-performance liquid chromatograph, the molar ratio of salt-forming ions was tested using ion chromatography, and the analytical conditions are shown in Tables A-4 and A-5 below.
Solids at a feeding concentration of 10 mg/mL (calculated based on free base) were rotationally mixed with corresponding vehicles at 37° C. […] After sampling at each time point, the samples were centrifuged (at 10000 rpm) and filtered (through a 0.45 μm PTFE filter head). The HPLC concentrations and pH values of the filtrates were determined.
100.2 mg of NaCl and 50.3 mg of Triton X-100 were weighed into a 50 mL volumetric flask and then completely dissolved by addition of purified water. 816 μL of 1 M hydrochloric acid was added, and the pH was adjusted to 1.8 with 1 M hydrochloric acid or 1 M NaOH solution. The mixed solution was brought to the volume by addition of purified water.
170.5 mg of anhydrous NaH2PO4, 22.2 mg of NaOH, and 310.9 mg of NaCl were weighed into a 50 mL volumetric flask and then completely dissolved by addition of purified water. The pH was adjusted to 6.5 with 1 M hydrochloric acid or 1 M NaOH solution. The mixed solution was brought to the volume by addition of purified water. Subsequently, 55.1 mg of SIF powder was weighed into a 25 mL volumetric flask and completely dissolved with the above solution, and the mixed solution was brought to the volume.
0.21 mL of glacial acetic acid, 101.6 mg of NaOH, and 295.4 mg of NaCl were added into a 25 mL volumetric flask and then completely dissolved by addition of about 20 mL of purified water. The pH was adjusted to 5.0 with 1 M hydrochloric acid or 1 M NaOH solution. The mixed solution was brought to the volume by addition of purified water, and then 280.8 mg of SIF powder was weighed into the flask and completely dissolved.

[4] = 25° C./60% RH/uncovered, 1 week
[5] = 40° C./75% RH/uncovered, 1 week
[6] = 25° C./60% RH/uncovered, 1 month
[7] = 40° C./75% RH/uncovered, 1 month

- crystalline form after DVS test ([1]; 25° C.): remained unchanged
- vapor sorption [1]: about 0.49%
- hygroscopicity [1]: slight hygroscopicity
- HPLC Purity (area %) [2, 4]: 99.57 area %
- HPLC purity Relative to starting (%) [2, 4]: 99.98%
- HPLC Purity (area %) [2, 5]: 99.58 area %
- HPLC purity Relative to starting (%) [2, 5]: 99.99%
- change of HPLC purity after placement under the corresponding conditions [2]: no significant change
- HPLC Purity (area %) ([2]; 60° C./sealed, 1 day): 99.58 area %
- HPLC purity Relative to starting (%) ([2]; 60° C./sealed, 1 day): 99.99%
- HPLC Purity (area %) ([2]; Starting): 99.59 area %
- Crystalline form change ([3]; FaSSIF, 1 h): Yes^a
- S: solubility ([3]; FaSSIF, 1 h): 9 µg/mL
- pH of filtrate ([3]; FaSSIF, 1 h): 5.2
- Crystalline form change ([3]; FaSSIF, 4 h): Yes^a
- S: solubility ([3]; FaSSIF, 4 h): 9 µg/mL
- pH of filtrate ([3]; FaSSIF, 4 h): 5.2
- Crystalline form change ([3]; FaSSIF, 24 h): Yes^a
- S: solubility ([3]; FaSSIF, 24 h): 14 µg/mL
- pH of filtrate ([3]; FaSSIF, 24 h): 5.2
- Crystalline form change ([3]; FeSSIF, 1 h): Yes^a
- S: solubility ([3]; FeSSIF, 1 h): 30 µg/mL
- pH of filtrate ([3]; FeSSIF, 1 h): 4.9
- Crystalline form change ([3]; FeSSIF, 4 h): Yes^a
- S: solubility ([3]; FeSSIF, 4 h): 27 µg/mL
- pH of filtrate ([3]; FeSSIF, 4 h): 4.9
- Crystalline form change ([3]; FeSSIF, 24 h): Yes^a
- S: solubility ([3]; FeSSIF, 24 h): 23 µg/mL
- pH of filtrate ([3]; FeSSIF, 24 h): 4.9
- Crystalline form change ([3]; H2O, 1 h): Yes^a
- S: solubility ([3]; H2O, 1 h): 4 µg/mL
- pH of filtrate ([3]; H2O, 1 h): 2.1
- Crystalline form change ([3]; H2O, 4 h): Yes^a
- S: solubility ([3]; H2O, 4 h): 3 µg/mL
- pH of filtrate ([3]; H2O, 4 h): 2.1
- Crystalline form change ([3]; H2O, 24 h): Yes^a
- S: solubility ([3]; H2O, 24 h): 4 µg/mL
- pH of filtrate ([3]; H2O, 24 h): 2.1
- solubility at 24 h ([3]; SGF, 37 °C, pH 1.8, simulated gastric fluid, thermodynamic from solid, SGF, 24 h, read-out: S: solubility): 11 µg/mL
- Crystalline form change ([3]; SGF, 1 h): Yes^a
- S: solubility ([3]; SGF, 1 h): 14 µg/mL
- pH of filtrate ([3]; SGF, 1 h): 1.6
- Crystalline form change ([3]; SGF, 4 h): Yes^a
- S: solubility ([3]; SGF, 4 h): 11 µg/mL
- pH of filtrate ([3]; SGF, 4 h): 1.6
- Crystalline form change ([3]; SGF, 24 h): Yes^a
- pH of filtrate ([3]; SGF, 24 h): 1.6
SMILES: Cc1cnc(-c2cc(O[C@@H](C)[C@@H](C)O)cc(C(=O)N[C@H](C)c3cnc(C(F)(F)F)nc3)c2F)s1 [Crystalline form A of hydrochloride]

- crystalline form after DVS test ([1]; 25° C.): remained unchanged
- vapor sorption when the humidity was more than 80% RH ([1]; 25° C., more than 80% RH): rapid vapor sorption
- vapor sorption [1]: about 0.41%
- hygroscopicity [1]: slight hygroscopicity
- HPLC Purity (area %) [2, 4]: 99.71 area %
- HPLC purity Relative to starting (%) [2, 4]: 100.00%
- HPLC Purity (area %) [2, 5]: 99.65 area %
- HPLC purity Relative to starting (%) [2, 5]: 99.94%
- change of HPLC purity after placement under the corresponding conditions [2]: no significant change
- HPLC Purity (area %) ([2]; 60° C./sealed, 1 day): 99.60 area %
- HPLC purity Relative to starting (%) ([2]; 60° C./sealed, 1 day): 99.89%
- HPLC Purity (area %) ([2]; Starting): 99.71 area %
- Crystalline form change ([3]; FaSSIF, 1 h): Yes^a
- S: solubility ([3]; FaSSIF, 1 h): 6 µg/mL
- pH of filtrate ([3]; FaSSIF, 1 h): 4.9
- Crystalline form change ([3]; FaSSIF, 4 h): Yes^a
- S: solubility ([3]; FaSSIF, 4 h): 7 µg/mL
- pH of filtrate ([3]; FaSSIF, 4 h): 4.7
- Crystalline form change ([3]; FaSSIF, 24 h): Yes^a
- S: solubility ([3]; FaSSIF, 24 h): 7 µg/mL
- pH of filtrate ([3]; FaSSIF, 24 h): 4.5
- Crystalline form change ([3]; FeSSIF, 1 h): Yes^a
- S: solubility ([3]; FeSSIF, 1 h): 20 µg/mL
- pH of filtrate ([3]; FeSSIF, 1 h): 4.9
- Crystalline form change ([3]; FeSSIF, 4 h): Yes^a
- S: solubility ([3]; FeSSIF, 4 h): 20 µg/mL
- pH of filtrate ([3]; FeSSIF, 4 h): 4.9
- Crystalline form change ([3]; FeSSIF, 24 h): Yes^a
- S: solubility ([3]; FeSSIF, 24 h): 21 µg/mL
- pH of filtrate ([3]; FeSSIF, 24 h): 4.9
- solubility in H2O compared with the other forms ([3]; H2O): highest solubility in H2O
- Crystalline form change ([3]; H2O, 1 h): Yes^a
- S: solubility ([3]; H2O, 1 h): 7 µg/mL
- pH of filtrate ([3]; H2O, 1 h): 2.3
- Crystalline form change ([3]; H2O, 4 h): Yes^a
- S: solubility ([3]; H2O, 4 h): 7 µg/mL
- pH of filtrate ([3]; H2O, 4 h): 2.3
- Crystalline form change ([3]; H2O, 24 h): Yes^a
- S: solubility ([3]; H2O, 24 h): 8 µg/mL
- pH of filtrate ([3]; H2O, 24 h): 2.2
- Crystalline form change ([3]; SGF, 1 h): Yes^a
- S: solubility ([3]; SGF, 1 h): 10 µg/mL
- pH of filtrate ([3]; SGF, 1 h): 1.7
- Crystalline form change ([3]; SGF, 4 h): Yes^a
- S: solubility ([3]; SGF, 4 h): 10 µg/mL
- pH of filtrate ([3]; SGF, 4 h): 1.7
- Crystalline form change ([3]; SGF, 24 h): Yes^a
- S: solubility ([3]; SGF, 24 h): 9 µg/mL
- pH of filtrate ([3]; SGF, 24 h): 1.7
SMILES: Cc1cnc(-c2cc(O[C@@H](C)[C@@H](C)O)cc(C(=O)N[C@H](C)c3cnc(C(F)(F)F)nc3)c2F)s1 [Crystalline form A of maleate]

- crystalline form after DVS test ([1]; 25° C.): remained unchanged
- vapor sorption [1]: about 0.12%
- hygroscopicity [1]: almost no hygroscopicity
- HPLC Purity (area %) [2, 6]: 99.92 area %
- HPLC purity Relative to starting (%) [2, 6]: 100.00%
- HPLC Purity (area %) [2, 4]: 99.92 area %
- HPLC purity Relative to starting (%) [2, 4]: 100.00%
- HPLC Purity (area %) [2, 7]: 99.92 area %
- HPLC purity Relative to starting (%) [2, 7]: 100.00%
- HPLC Purity (area %) [2, 5]: 99.92 area %
- HPLC purity Relative to starting (%) [2, 5]: 100.00%
- change of HPLC purity after placement under the corresponding conditions [2]: no significant change
- HPLC Purity (area %) ([2]; 60° C./sealed, 1 day): 99.92 area %
- HPLC purity Relative to starting (%) ([2]; 60° C./sealed, 1 day): 100.00%
- HPLC Purity (area %) ([2]; Starting): 99.92 area %
- S: solubility ([3]; FaSSIF, 1 h): 28 µg/mL
- pH of filtrate ([3]; FaSSIF, 1 h): 2.6
- Crystalline form change ([3]; FaSSIF, 4 h): Yes^a′
- S: solubility ([3]; FaSSIF, 4 h): 13 µg/mL
- pH of filtrate ([3]; FaSSIF, 4 h): 2.6
- Crystalline form change ([3]; FaSSIF, 24 h): Yes^a′
- S: solubility ([3]; FaSSIF, 24 h): 6 µg/mL
- pH of filtrate ([3]; FaSSIF, 24 h): 2.6
- S: solubility ([3]; FeSSIF, 1 h): 95 µg/mL
- pH of filtrate ([3]; FeSSIF, 1 h): 4.8
- S: solubility ([3]; FeSSIF, 4 h): 81 µg/mL
- pH of filtrate ([3]; FeSSIF, 4 h): 4.8
- Crystalline form change ([3]; FeSSIF, 24 h): Yes^a′
- S: solubility ([3]; FeSSIF, 24 h): 28 µg/mL
- pH of filtrate ([3]; FeSSIF, 24 h): 4.8
- Crystalline form change ([3]; H2O, 1 h): Yes^a
- S: solubility ([3]; H2O, 1 h): 6 µg/mL
- pH of filtrate ([3]; H2O, 1 h): 1.8
- Crystalline form change ([3]; H2O, 4 h): Yes^a
- S: solubility ([3]; H2O, 4 h): 5 µg/mL
- pH of filtrate ([3]; H2O, 4 h): 1.8
- Crystalline form change ([3]; H2O, 24 h): Yes^a
- S: solubility ([3]; H2O, 24 h): 5 µg/mL
- pH of filtrate ([3]; H2O, 24 h): 1.8
- S: solubility ([3]; SGF, 1 h): 37 µg/mL
- pH of filtrate ([3]; SGF, 1 h): 1.5
- Crystalline form change ([3]; SGF, 4 h): Yes^a+b′
- S: solubility ([3]; SGF, 4 h): 33 µg/mL
- pH of filtrate ([3]; SGF, 4 h): 1.5
- Crystalline form change ([3]; SGF, 24 h): Yes^a′
- S: solubility ([3]; SGF, 24 h): 12 µg/mL
- pH of filtrate ([3]; SGF, 24 h): 1.5
- 1-hour solubility in the three biological vehicles other than H2O compared with the other forms ([3]; SGF, FaSSIF, FeSSIF, 1 h): highest 1-hour solubility
SMILES: Cc1cnc(-c2cc(O[C@@H](C)[C@@H](C)O)cc(C(=O)N[C@H](C)c3cnc(C(F)(F)F)nc3)c2F)s1 [Crystalline form A of p-toluenesulfonate]
- Crystalline form change ([3]; FaSSIF, 1 h): Yes^b′ (transformed to free base crystalline form B + additional diffraction peaks)
- Crystalline form change ([3]; FeSSIF, 1 h): Yes^b′ (transformed to free base crystalline form B + additional diffraction peaks)
- Crystalline form change ([3]; FeSSIF, 4 h): Yes^b (transformed to free base crystalline form B)
- Crystalline form change ([3]; SGF, 1 h): Yes^b′ (transformed to free base crystalline form B + additional diffraction peaks)
